Assay [1] addresses Nitric oxide synthase (inducible and endothelial) (Homo sapiens) (UniProt P35228+P29474). The assay can be described thus: Selectivity index determined by the ratio of IC50 of eNOS to the iNOS. It counts as protein assay.
Assay [2] deals with Nitric oxide sythases; iNOS & nNOS (Homo sapiens) (UniProt P29475+P35228). The assay can be described thus: Selectivity index determined by the ratio of IC50 of nNOS to the iNOS. It counts as protein assay.
A further assay deals with T1, Nitric oxide synthase 3 (Homo sapiens, UniProt P29474).
T1 sequence (P29474 whole entry): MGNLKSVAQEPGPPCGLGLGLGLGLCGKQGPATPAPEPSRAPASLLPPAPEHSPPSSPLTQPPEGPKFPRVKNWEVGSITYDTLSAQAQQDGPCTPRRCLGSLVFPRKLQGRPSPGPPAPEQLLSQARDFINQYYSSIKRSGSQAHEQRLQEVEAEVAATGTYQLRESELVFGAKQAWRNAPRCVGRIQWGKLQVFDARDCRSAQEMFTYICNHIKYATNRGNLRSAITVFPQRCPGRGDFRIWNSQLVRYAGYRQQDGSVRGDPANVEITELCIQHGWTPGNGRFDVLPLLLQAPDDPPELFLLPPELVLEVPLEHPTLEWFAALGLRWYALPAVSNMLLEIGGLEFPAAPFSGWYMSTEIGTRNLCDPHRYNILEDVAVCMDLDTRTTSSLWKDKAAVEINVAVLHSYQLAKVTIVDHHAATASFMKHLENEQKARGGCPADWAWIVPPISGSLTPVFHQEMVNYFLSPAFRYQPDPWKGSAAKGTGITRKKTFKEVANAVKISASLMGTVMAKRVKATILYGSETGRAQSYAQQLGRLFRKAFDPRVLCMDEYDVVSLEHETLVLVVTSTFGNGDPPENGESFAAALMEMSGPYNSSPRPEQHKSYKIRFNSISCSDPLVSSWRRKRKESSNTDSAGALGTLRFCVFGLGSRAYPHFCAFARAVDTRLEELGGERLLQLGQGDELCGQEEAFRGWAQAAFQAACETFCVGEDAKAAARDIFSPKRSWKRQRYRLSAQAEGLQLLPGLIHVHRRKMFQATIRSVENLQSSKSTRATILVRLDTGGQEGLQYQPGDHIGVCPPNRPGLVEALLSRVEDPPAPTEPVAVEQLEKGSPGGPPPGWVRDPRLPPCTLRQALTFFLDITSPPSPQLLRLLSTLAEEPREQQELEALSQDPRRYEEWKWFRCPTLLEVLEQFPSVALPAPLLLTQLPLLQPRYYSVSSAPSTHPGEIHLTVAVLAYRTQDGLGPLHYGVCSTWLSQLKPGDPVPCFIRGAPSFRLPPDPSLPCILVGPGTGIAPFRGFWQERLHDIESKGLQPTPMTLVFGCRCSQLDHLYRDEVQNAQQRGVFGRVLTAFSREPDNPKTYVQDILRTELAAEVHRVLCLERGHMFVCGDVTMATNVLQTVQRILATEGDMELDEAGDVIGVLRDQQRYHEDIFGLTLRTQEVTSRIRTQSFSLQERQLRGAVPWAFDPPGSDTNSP
The assay can be described thus: Compound was evaluated for the Inhibition of endothelial isoform of Endothelial nitric oxide synthase (eNOS)enzyme.

The target of assay [3] is T2, Nitric oxide synthase, inducible (Homo sapiens, UniProt P35228). The assay is described as follows: Compound was evaluated for the Inhibition of induced isoform of Inducible nitric oxide synthase.
T2 sequence (P35228 whole entry, canonical isoform): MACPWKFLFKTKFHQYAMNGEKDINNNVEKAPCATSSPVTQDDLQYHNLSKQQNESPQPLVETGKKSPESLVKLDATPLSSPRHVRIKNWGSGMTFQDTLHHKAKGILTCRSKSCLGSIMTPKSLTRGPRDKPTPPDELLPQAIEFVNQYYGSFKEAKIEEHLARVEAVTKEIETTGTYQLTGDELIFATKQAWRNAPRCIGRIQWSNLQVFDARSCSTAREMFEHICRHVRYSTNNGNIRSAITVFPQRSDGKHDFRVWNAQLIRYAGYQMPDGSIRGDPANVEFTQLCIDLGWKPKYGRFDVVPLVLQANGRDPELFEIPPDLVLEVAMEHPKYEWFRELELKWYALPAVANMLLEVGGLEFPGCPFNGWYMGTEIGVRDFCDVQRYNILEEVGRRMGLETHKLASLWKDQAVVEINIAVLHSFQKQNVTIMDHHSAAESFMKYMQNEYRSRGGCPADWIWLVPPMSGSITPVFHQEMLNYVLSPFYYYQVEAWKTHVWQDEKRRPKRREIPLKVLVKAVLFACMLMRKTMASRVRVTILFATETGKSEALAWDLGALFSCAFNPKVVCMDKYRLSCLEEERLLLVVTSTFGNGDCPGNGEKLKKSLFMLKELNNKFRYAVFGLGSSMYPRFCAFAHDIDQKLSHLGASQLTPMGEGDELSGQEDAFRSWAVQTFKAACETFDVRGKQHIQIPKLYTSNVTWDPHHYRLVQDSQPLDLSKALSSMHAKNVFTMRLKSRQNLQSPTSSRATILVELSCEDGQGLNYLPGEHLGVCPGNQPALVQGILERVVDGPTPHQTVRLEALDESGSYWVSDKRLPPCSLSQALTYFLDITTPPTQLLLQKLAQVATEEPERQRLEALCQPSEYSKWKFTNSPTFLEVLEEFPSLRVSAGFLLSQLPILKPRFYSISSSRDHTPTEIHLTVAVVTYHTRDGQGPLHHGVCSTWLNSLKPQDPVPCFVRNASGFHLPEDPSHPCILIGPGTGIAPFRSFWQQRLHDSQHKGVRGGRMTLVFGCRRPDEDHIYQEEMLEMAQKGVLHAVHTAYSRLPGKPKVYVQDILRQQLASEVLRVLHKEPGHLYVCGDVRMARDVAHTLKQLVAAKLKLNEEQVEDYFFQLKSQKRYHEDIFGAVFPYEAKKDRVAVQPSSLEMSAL
The target of assay [4] is T3, Nitric oxide synthase 1 (Homo sapiens, UniProt P29475). The assay can be described thus: Compound was evaluated for the Inhibition of Neuronal nitric oxide synthase.
T3 sequence (P29475 whole entry): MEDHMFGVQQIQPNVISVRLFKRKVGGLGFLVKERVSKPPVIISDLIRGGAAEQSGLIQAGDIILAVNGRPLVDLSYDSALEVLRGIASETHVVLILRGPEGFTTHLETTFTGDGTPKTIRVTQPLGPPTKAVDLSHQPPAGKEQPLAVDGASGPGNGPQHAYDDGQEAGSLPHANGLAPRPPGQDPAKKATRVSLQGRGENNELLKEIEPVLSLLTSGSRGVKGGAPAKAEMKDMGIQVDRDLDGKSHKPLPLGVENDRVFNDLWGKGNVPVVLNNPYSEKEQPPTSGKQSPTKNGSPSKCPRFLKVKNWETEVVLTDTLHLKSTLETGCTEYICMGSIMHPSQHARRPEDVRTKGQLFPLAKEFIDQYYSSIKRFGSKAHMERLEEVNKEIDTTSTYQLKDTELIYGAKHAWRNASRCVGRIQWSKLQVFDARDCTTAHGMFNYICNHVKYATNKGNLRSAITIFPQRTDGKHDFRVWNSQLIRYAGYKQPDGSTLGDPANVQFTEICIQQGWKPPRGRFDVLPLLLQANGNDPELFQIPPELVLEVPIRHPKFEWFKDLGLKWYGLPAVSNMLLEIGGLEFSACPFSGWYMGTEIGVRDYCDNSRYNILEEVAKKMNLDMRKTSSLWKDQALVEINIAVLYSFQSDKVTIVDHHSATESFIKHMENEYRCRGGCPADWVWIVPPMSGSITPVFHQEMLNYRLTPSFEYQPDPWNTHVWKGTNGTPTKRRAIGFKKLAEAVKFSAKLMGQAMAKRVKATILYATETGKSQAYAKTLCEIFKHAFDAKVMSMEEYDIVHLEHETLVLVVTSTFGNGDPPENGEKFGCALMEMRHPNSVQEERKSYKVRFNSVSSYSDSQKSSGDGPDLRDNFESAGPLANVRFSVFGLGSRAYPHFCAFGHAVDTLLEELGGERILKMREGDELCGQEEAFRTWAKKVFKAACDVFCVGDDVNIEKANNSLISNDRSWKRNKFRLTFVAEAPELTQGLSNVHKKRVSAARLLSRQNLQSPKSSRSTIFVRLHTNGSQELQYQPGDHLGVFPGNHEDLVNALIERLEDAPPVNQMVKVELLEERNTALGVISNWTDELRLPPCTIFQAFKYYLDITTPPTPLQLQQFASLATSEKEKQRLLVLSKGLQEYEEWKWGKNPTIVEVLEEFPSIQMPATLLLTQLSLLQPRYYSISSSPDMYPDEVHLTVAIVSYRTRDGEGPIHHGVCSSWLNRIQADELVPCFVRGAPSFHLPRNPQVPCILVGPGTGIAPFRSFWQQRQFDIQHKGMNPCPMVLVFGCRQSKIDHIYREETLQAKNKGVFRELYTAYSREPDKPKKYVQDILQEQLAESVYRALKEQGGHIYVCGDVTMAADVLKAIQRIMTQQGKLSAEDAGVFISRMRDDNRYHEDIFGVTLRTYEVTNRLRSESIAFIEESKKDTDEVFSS
In assay [5] the target is T4, Nitric oxide synthase 3 (Homo sapiens) (UniProt P29474).
T4 sequence (whole entry): T1 sequence (P29474 whole entry)
The assay is described as follows: Compound was evaluated for the Inhibition of endothelial isoform of Endothelial nitric oxide synthase (eNOS)enzyme at 100 uM concentration.

Assay [6] deals with T3, Nitric oxide synthase 1. The assay is described as follows: Compound was evaluated for the Inhibition of Neuronal nitric oxide synthase at 100 uM concentration.
In assay [7] the target is T2, Nitric oxide synthase, inducible. The assay can be described thus: Compound was evaluated for the Inhibition of induced isoform of Inducible nitric oxide synthase at 100 uM concentration.

Chain of Nitric oxide synthase (inducible and endothelial) (Homo sapiens) (P35228 whole entry, looked up, one chain of several): as the sequence (P35228 whole entry, canonical isoform) above
Chain of Nitric oxide sythases; iNOS & nNOS (Homo sapiens) (P29475 whole entry, looked up): as the sequence (P29475 whole entry) above
Chain of Nitric oxide sythases; iNOS & nNOS (Homo sapiens) (P35228 whole entry, looked up): as the sequence (P35228 whole entry, canonical isoform) above

For the compound `CC(=N)NCCCC[C@H](N)C(=O)O` [L-NIL], the Selectivity index in assay [1] worked out at 30; in assay [2], 12. Further, the results for the 50% inhibitory concentration (IC50) (at Nitric oxide synthase 3; in assay [3]) were 138 µM and 5 µM, respectively.

As to `CC(=N)NCCCC[C@H](N)[C@@H](O)CO`, the values for the Selectivity index in assay [1] and in assay [2] were 700 and 12, respectively. In addition, the 50% inhibitory concentration (IC50) (commonly the concentration that inhibits the measured activity by half) turned out to be 150 µM against Nitric oxide synthase 1 [4], 8420 µM against Nitric oxide synthase 3 and 12 µM in assay [3].

In the case of `CC(=N)NCCCC[C@H](N)[C@H](O)CO`, the inhibition (commonly the change of the read-out against control, counted positive when it falls) in assay [5] came to 0%; against Nitric oxide synthase 1 [6] it was 13%; in assay [7], 49%.

The values are drawn from ChEMBL document CHEMBL1131487, “Acetamidine lysine derivative, N-(5(S)-amino-6,7-dihydroxyheptyl)ethanimidamide dihydrochloride: a highly selective inhibitor of human inducible nitric oxide synthase” (J Med Chem, 1998).
